Measured values from US20220401483A1, “COMBINATION OF A T CELL THERAPY AND (S)-3-[4-(4-MORPHOLIN-4-YLMETHYL-BENZYLOXY)-L-OXO-L,3-DIHYDRO-ISOINDOL-2-YL]-PIPERIDINE-2,6-DIONE” (Juno Therapeutics, Inc., priority 2019, published 2022).

Columns and labels:
Ikaros = Ikaros expression in chronically stimulated CAR T cells with concurrent treatment; format: cell-based, human; settings: 100 nM
Description: (§1) Anti-CD19 CAR-expressing T cells were produced substantially as described in Example 1. To subject cells to chronic stimulation conditions, the CAR+ T cells were stimulated with 30 μg/mL plate-bound anti-idiotypic (anti-ID) antibody (see e.g. WO2018/023100) for 6 days in the presence of (S)-3-[4-(4-morpholin-4-ylmethyl-benzyloxy)-1-oxo-1,3-dihydro-isoindol-2-yl]-piperidine-2,6-dione (Compound A) or a vehicle control, to induce chronic stimulation. […] Cells were assessed at various times for cytolytic function, CAR T cell number and cytokine production.
After the long-term, chronic stimulation with concurrent treatment with Compound A, CAR T cells were assessed for Ikaros expression or for CAR T function following rechallenge with CD19-expressing target cells.
Expression of Ikaros in CAR T cells that had been subjected to chronic stimulation in the presence of Compound A (1 nM, 10 nM or 100 nM) was measured by intracellular flow cytometry analysis using an antibody to Ikaros.

Cmax in healthy subjects = settings: human, in vivo, doses of 0.3 mg and 1.0 mg
[1] = tested on: K562.CD19, Raji, Granta-519 cells; experiment: Cytolytic activity of CAR T cells after chronic stimulation with concurrent treatment, rechallenge with CD19+ tumor cells; format: cell-based, human; settings: 0.001 μM or 0.01 μM, E:T 1:1, vs control
Description: as §1, with “stimulation. After the 6-day culture period, the anti-CD19 CAR-expressing T cells were removed from culture and incubated with K562 cells transduced with CD19 (K562.CD19), Raji tumor cells, and Granta-519 tumor cells (to rechallenge the CAR-T cells) at an effector to target ratio of 2.5:1 unless otherwise indicated, in the presence of Compound A, at concentrations ranging from 0.001 μM to 10 μM, or vehicle control for up to 10 days.” for “stimulation.”
CAR T cells that had been stimulated for 6 days with anti-ID concurrently in the presence of Compound A (0.001 μM or 0.01 μM) were washed free of compound and co-cultured with CD19+ tumor cells at an effector to target (E:T) ratio of 1:1 in the absence of Compound A. The assessed CD19+ tumor cells included K562 cells transduced with CD19 (K562.CD19), Raji cells, or Granta-519 cells.

[2] = tested on: K562.CD19, Raji, Granta-519 cells; experiment: Cytolytic activity of chronically stimulated CAR T cells with rescue treatment, CD19+ tumor cells; format: cell-based, human; settings: 0.001 μM or 0.01 μM, E:T 1:1, vs control
Description: (§2) Anti-CD19 CAR-expressing T cells from three donors, produced as described in Example 1, were stimulated under conditions to induce chronic stimulation (to produce hypofunctional, exhausted T cells) and then were subsequently treated (rescue) with (S)-3-[4-(4-morpholin-4-ylmethyl-benzyloxy)-1-oxo-1,3-dihydro-isoindol-2-yl]-piperidine-2,6-dione (Compound A), or a vehicle control. Long-term, chronic stimulation was carried out by stimulation of CAR T cells with 30 μg/mL plate-bound anti-idiotypic (anti-ID) antibody for 6 days, substantially as described in Example 3 but in the absence of Compound A. After the chronic stimulation, the CAR-T cells were rechallenged with CD19-expressing target cells in the presence of Compound A, and cytolytic activity or cytokine production was assessed.
CAR T cells that had been stimulated for 6 days with anti-ID were co-cultured with CD19+ tumor cells at an effector to target (E:T) ratio of 1:1, in the presence of Compound A (0.001 μM or 0.01 μM). The assessed CD19+ tumor cells included K562 cells transduced with CD19 (K562.CD19), Raji cells or Granta-519 cells.

[3] = tested on: Granta-519 tumor spheroids; experiment: Spheroid tumor growth assay, rescue treatment of chronically stimulated CAR T cells; format: cell-based, human
Description: as §2
CAR T cells that had been stimulated for 6 days with anti-ID were co-cultured by incubation with Granta-519 tumor spheroids, in the presence or absence of Compound A (0.001 μM or 0.01 μM). Cells were assessed at various time points for cytolytic function and cytokine function. For comparison, cytolytic activity was also assessed for cells that had been similarly chronically stimulated with anti-ID, followed by co-culture in the presence of 1 μM or 0.1 μM Compound B. Averaged measurement of tumor spheroid size at Day 9 following co-culture with CAR-T cells was assessed. […] The improvement in cytolytic function was greater following rescue treatment with Compound A than Compound B. Cytokines (IFNγ, IL-2 and TNFalpha) were measured from supernatant of the chronically stimulated CAR T cells above that had been co-cultured for 5 days with CD19 tumor spheroids. The log 2 fold change compared to control cells (chronically stimulated cells that had not been treated with immunomodulatory compound) is shown in FIG. 4C.

In the case of `O=C1CC[C@H](N2Cc3c(OCc4ccc(CN5CCOCC5)cc4)cccc3C2=O)C(=O)N1` [Compound A, (S)-3-[4-(4-morpholin-4-ylmethyl-benzyloxy)-1-oxo-1,3-dihydro-isoindol-2-yl]-piperidine-2,6-dione], the “Ikaros expression in chronically stimulated cells” value (Ikaros) is reported as “reduction of Ikaros expression was maintained”, the Cmax (Cmax in healthy subjects) is reported as 2.41 to 11.8 nM and the “cytolytic activity (tumor cell number over time)” value [1] is reported as “improved”. The “cytolytic activity (tumor cell number over time)” value [2] was “statistically significant improvement”, the “CAR T cell cytolytic function, Granta-519 spheroid growth” value ([3]; 0.001 μM or 0.01 μM, Day 9) was “improved” and the “IFNγ in co-culture supernatant” value ([3]; 5 days co-culture with spheroids) was “statistically significant increase”. For the same compound, the “improvement in cytolytic function compared with Compound B” value ([3]; Compound B 1 μM or 0.1 μM) was “greater”.
